According to US8399466B2, “Composition for regenerative treatment of cartilage disease” (Mitsubishi Tanabe Pharma Corporation, priority 2001, dated 2013):

Key:
[1] = system: articular chondrocytes; test: Increase of matrix production of articular chondrocytes (Alcian blue staining of proteoglycan); format: cell-based, rabbit; conditions: for Proteoglycan Production (%): cultivation until day 5, vehicle = 100; for matrix production promoting activity: summary of Table 1
Experimental: Four NZW line rabbits (Kitayama Labes., Co Ltd.; male; 4-week-old) were sacrificed with bleeding under ether anesthesia and femur knee joints were collected aseptically. The collected knee joints were stored in phosphate buffer (pH 7.2) containing 0.2% glucose and only the cortical layer of knee joint was scrapped with a surgical knife into a 50 ml tube containing phosphate buffer (pH 7.2) containing 0.2% glucose. The collected knee joint cortical layer was cut into as small sections as possible on a dish with a razor and shaken at 37° C. for 15 minutes in phosphate buffer containing 0.2% glucose, supplied with 10× trypsin-ethylenediamine tetraacetic acid (EDTA)·4 Na salt (GIBCO; Cat. No. 15400-054) (50 ml, with 100 mg of trypsin and 40 mg of EDTA·4Na; pH 7.2). After shaking, the sample was centrifuged (1,400 rpm) to collect precipitates, and the precipitates were washed twice with 40 ml of phosphate buffer containing 0.2% glucose. The washed precipitates were combined with 40 ml of serum-free α-minimum essential medium (MEM: GIBCO; Cat: No. 12571-063) containing 60 mg of collagenase for cell diffusion (Wako Pure Chemical Industries, Ltd., 034-10533) and transferred to a 100 ml beaker containing a sterilized stirrer bar. Under stirring with the stirrer bar, the collagenase digestion was carried on for about 1 hour in a CO2 incubator at 37° C. Cartilage fragments were removed from the collagenase-treated cells using a […] Cell Strainer ([FALCON; Cat. No. 2340]). To the residual treated cells was added 10 ml of α-MEM medium containing 10% fetal calf serum (FCS), and centrifuged (1,400 rpm). The precipitates were washed with 10% FCS-αMEM medium twice, suspended in appropriate volume of the same medium and the resultant suspension was seeded into collagen type II (Wako Pure Chemical Industries, Ltd., 033-13901)-coated plates (48 well) at 20,000 cells/well. On the next day, the medium was replaced with 10% FCS-αMEM medium.
When cells reached to confluent after the medium exchange procedure above, the medium for test group was replaced with test compound-containing medium (including 0.1% dimethylsulfoxide as a vehicle). As a medium to which a test compound is added, 10% FCS-αMEM medium containing 0.2 mM ascorbic acid was used. The day on which test compound-containing medium was added for the first time was defined as “day 1”. The medium exchange with the same medium was again conducted at day 3 and the cultivation continued until day 5. As to the control group, the medium was exchanged at the same time using the same medium as the test group except that it is free of test compound (containing vehicle only), and the cultivation was carried out in the same manner. After completion of cultivation, the supernatant was removed from the culture medium. Cells were fixed by addition of 0.25 ml of neutral buffer containing 4% paraformaldehyde and incubation for 2 hours. Cells were washed three times with 1 ml of phosphate buffer (pH 7.2) and then stained for 4 hours with 0.1% Alcian blue 8GX (Sigma; A3157) dissolved in 0.1 M hydrochloric acid, which Alcian blue selectively stains cartilage matrix proteoglycan. After staining, the cells were washed 3 times with 1 ml of phosphate buffer (pH 7.2). Alcian blue which had stained cartilage matrix was dissolved with 0.25 ml of aqueous 6 M guanidine hydrochloride solution and a portion of the solution was used to determine the absorbance at 620 nm. The amounts of Alcian blue used for staining was calculated from the absorbance, which in turn was used for the estimation of the amount of matrix (proteoglycan).

[2] = system: cAMP hydrolytic PDE expressed in human articular cartilage (fraction Nos. 28-30); test: Inhibition of cAMP hydrolyzing activity of fraction Nos. 28-30 of human articular cartilage extract; format: biochemical
Experimental: From the human knee articular cartilage was isolated on surgery of osteoarthrosis patients. Cartilage portion was scrapped with a surgery knife, washed with ice-cold phosphate buffer and stored at −80° C. The cartilage tissues were milled at −80° C. and then, scattered into pieces with homogenizer (Kinematica A.G., Polytron) in ice-cold homogenization buffer (20 mM Tris-HCl, pH 8.0, 1 mM ethylene glycol bis(β-aminoethylether)-N,N,N′,N′-tetraacetic acid, 1 mM dithiothreitol, 10 μg/ml leupeptin, 5 mM benzamidine, 0.2 mM phenylmethylsulfonyl fluoride, 1 mM sodium azide and 5 mM mercaptoethanol). The resultant homogenate was centrifuged (100,000×g; 30 minutes) to separate supernatant.
The above supernatant was loaded on a Mono Q Sepharose High Performance column (Amersham Pharmacia Biotech) equilibrated with elution buffer (20 mM Tris-HCl, pH 8.0, 1 mM ethylene glycol bis(β-aminoethylether)-N,N,N′,N′-tetraacetic acid, 1 mM dithiothreitol, 2 μg/ml leupeptin, 5 mM benzamidine). After washing the column with 20 ml of elution buffer, proteins were eluted into 1 ml fractions by aqueous sodium chloride solution (concentration gradient: 0 to 1000 mM, 70 ml) under ice-cooling. Each fraction was subjected to the determination of hydrolytic activity (PDE activity) toward cAMP and cGMP as a substrate.
The determination of PDE activity was performed by a radio-labeled nucleic acid assay. That is, the reaction was initiated by adding from 10 to 50 μl of elution fraction to 500 μl of assay buffer (50 mM Tris-HCl, pH 8.0, 5 mM magnesium chloride, 4 mM 2-mercaptoethanol) containing 1 μM of unlabeled cAMP and 22 nM of [^3H]-cAMP (Amersham Pharmacia Biotech).
After incubation at 37° C. for 30 minutes, the reaction was quenched by boiling for 1.5 minutes. Then, 100 μl of 1 mg/ml Crtalus atrox snake venom was added and incubated at 37° C. for 30 minutes. After addition of 500 μl of methanol, the reaction solution was subjected to Dowex column (1×8-400). To each eluate was added a liquid scintillation cocktail and the radio activity was measured.
The inhibitory activity of PDE4 inhibitor on fraction Nos. 28-30 containing potent cAMP hydrolyzing activity was measured according to the above-mentioned radio-labeled nucleic acid assay. The test compounds are Compound (1), Compound (2), Compound (11), Compound (44) and Compound (27).

Row | SMILES | Proteoglycan Production (%) ([1]; 1 × 10^−5 M) | Proteoglycan Production (%) ([1]; 1 × 10^−6 M) | matrix production promoting activity [1] | inhibition of the hydrolytic activity of the fraction ([2]; fraction Nos. 28-30, FIG. 4) | IC50 for fraction(s) ([2]; method of Journal of Medicinal Chemistry, vol. 42, 1088-1099 (1999), values only in FIG. 4)
1 | CCOc1cc2cc(CO)c(CO)c(-c3ccnc(-n4nc(-c5cccnc5)c5ccccc5c4=O)c3)c2cc1OCC [Compound (2)] | 128% | 125% | exert matrix production promoting activity | inhibits the hydrolytic activity of the fraction strongly | consistent with the IC50 of PDE4 inhibition activity described in the same literature
2 | COc1ccc(C(=O)Nc2c(Cl)cncc2Cl)cc1OC1CCCC1 [Compound (11)] | – | 112% | exert matrix production promoting activity | – | –
